For the assay, the system named is lashes and adjacent hairs of the eyelids. As to the kind of experiment: Clinical observation of lashes and adjacent hairs in glaucoma patients treated with bimatoprost in one eye. The class given is in vivo. An excerpt: In the course of treating patients having glaucoma, treatment may only be appropriate in one eye. […] The lash appearance on the lids of the treated eyes would have appeared quite attractive if it represented a bilateral phenomenon. As a result of its asymmetric nature, the long lashes on one side could be construed as disturbing from a cosmetic standpoint. A systemic examination was preformed as a result of the asymmetric phenomenon. It soon became apparent that this altered appearance was not an isolated finding. […] Definite differences could be identified to varying degrees in the lashes and adjacent hairs of all patients who were taking the drug on a unilateral basis for longer than 6 months.
The changes in the lashes were apparent on gross inspection in several patients once attention was focused on the issue. In those with light colored hair and lashes, the differences were only seen easily with the aid of the high magnification and lighting capabilities of the slit lamp biomicroscope. In the course of glaucoma follow-up examination, attention is generally immediately focused on the eye itself. As a result of the high power magnification needed only one eye is seen at a time and the eye is seen at a high enough power that the lashes are not in focus. […]

The values that follow come from patent US7737140B2, “Therapeutic compounds” (Allergan, Inc., priority 2008, dated 2010).

Regarding `CCNC(=O)CCC/C=C\C[C@@H]1[C@@H](/C=C/[C@@H](O)CCc2ccccc2)[C@H](O)C[C@@H]1O` [bimatoprost], the “hair growth in treated versus control areas” value (conclusion from multiple parameters of hair appearance in many subjects) is “stimulated”. Besides, the “lashes in the treated eye compared with the non-treated eye” value (glaucoma patient treated with bimatoprost in only one eye) is “longer, thicker, and fuller”.
